Results reported in US10028961B2, “Therapeutically active compounds and their methods of use” (AGIOS PHARMACEUTICALS, INC., priority 2013, dated 2018).

What was measured:
[1] = target: IDH1-R132H homodimer enzyme (Homo sapiens (Human), UniProt O75874, R132H); assay: In vitro assay IDH1-R132H homodimer, NADPH depletion assay with NADPH/NADP preincubation; type: biochemical; conditions: 5 μM NADPH and 37.5 μM NADP
Procedure, shortened: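 Compounds were added from DMSO at 50× final concentration, and the mutant enzyme was incubated 60 min at room temperature after starting with a substrate mix holding NADPH and 5 mM alpha-ketoglutarate. Residual cofactor, read by fluorescence after excess diaphorase and resazurin, reflects enzyme turnover.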

IDH2 R140Q = IDH2 R140Q (Homo sapiens (Human), UniProt P48735, R140Q); assay: In vitro assay for IDH2m R140Q inhibitors, cofactor depletion assay; type: biochemical; conditions: IDH2 R140Q enzyme
Sequence of IDH2 R140Q (P48735 40-452 R140Q): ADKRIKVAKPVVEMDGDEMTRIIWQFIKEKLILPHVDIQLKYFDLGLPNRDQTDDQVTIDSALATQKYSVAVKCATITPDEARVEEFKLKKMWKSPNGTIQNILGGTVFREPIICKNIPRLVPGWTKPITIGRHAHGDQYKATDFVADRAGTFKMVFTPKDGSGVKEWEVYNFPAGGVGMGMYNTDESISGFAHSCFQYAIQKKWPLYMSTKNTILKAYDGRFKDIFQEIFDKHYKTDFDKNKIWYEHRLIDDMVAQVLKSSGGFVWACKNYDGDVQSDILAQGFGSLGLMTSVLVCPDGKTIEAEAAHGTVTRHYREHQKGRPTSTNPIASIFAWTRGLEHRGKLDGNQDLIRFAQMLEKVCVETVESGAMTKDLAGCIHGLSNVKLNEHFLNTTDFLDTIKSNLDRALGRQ
Procedure, shortened: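 Remaining cofactor measured fluorimetrically: diaphorase/resazurin Stop Mix […], halting the reaction. Before that, mutant enzyme and compound sat 1 h at RT, then substrate mix (4 μM NADPH, 1.6 mM α-KG) was added for 16 h at RT.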

HT1080 cells = assay: Cellular assay for IDH1m R132C inhibitors, 2-HG by LC-MS in HT1080 cells; type: cell-based; conditions: Homo sapiens, HT-1080
Procedure, shortened: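 2-HG levels were measured by LC-MS in culture medium sampled 48 h after compound addition (0.2% DMSO) to HT1080 cells seeded overnight at 5000 cells/well. A CellTiter-Glo luminescence read at 72 h gave cell viability.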

Sequence of IDH1-R132H homodimer enzyme (O75874 whole entry R132H): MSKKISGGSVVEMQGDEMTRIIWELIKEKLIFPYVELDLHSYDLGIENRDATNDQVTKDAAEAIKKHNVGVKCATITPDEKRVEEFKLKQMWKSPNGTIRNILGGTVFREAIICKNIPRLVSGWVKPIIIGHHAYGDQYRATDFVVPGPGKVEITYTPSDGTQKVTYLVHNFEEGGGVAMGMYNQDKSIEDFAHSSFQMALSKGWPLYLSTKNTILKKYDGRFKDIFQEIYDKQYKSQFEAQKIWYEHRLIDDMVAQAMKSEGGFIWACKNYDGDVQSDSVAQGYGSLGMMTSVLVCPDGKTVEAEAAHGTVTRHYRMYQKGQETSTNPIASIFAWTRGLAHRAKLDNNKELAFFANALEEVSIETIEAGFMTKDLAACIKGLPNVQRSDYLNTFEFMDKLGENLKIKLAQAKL

| Compound | IC50 [1] [nM] | IC50 (IDH2 R140Q) [nM] | IC50 (HT1080 cells) [nM] |
| --- | --- | --- | --- |
| CC(C)(C)Nc1nc(Nc2ccnc(C#N)c2)nc(-c2cccc(C(F)(F)F)n2)n1 [Compound 162] | < 50 | < 50 | – |
| FC1(F)CCC(Nc2nc(NC3CC4(C3)CC(F)(F)C4)nc(-c3cccc(C(F)(F)F)n3)n2)C1 (stereo not drawn) [Compound 191] | 100 to 1000 | < 50 | 100 to 1000 |
| N#CC1(c2cc(Nc3nc(NCC(F)(F)F)nc(-c4cccc(C(F)(F)F)n4)n3)ccn2)CC1 [Compound 226] | 100 to 1000 | < 50 | – |
| FC1(F)CCC(Nc2nc(NC3CCC(F)(F)CC3)nc(-c3nccc(C(F)(F)F)n3)n2)CC1 [Compound 293] | > 1000 | 50 to 100 | – |
| FC1(F)CCC(Nc2nc(Nc3ccnc(C(F)(F)F)c3)nc(-c3cccc(C(F)(F)F)n3)n2)CC1 [Compound 192] | 100 to 1000 | < 50 | 100 to 1000 |
| N#Cc1cc(F)cc(Nc2nc(NC3CCC(F)(F)C3)nc(-c3cccc(C(F)(F)F)n3)n2)c1 (stereo not drawn) [Compound 124] | < 50 | < 50 | – |
| FC1(F)CCC(Nc2nc(NC3Cc4ccccc4C3)nc(-c3cccc(C(F)(F)F)n3)n2)C1 (stereo not drawn) [Compound 152] | < 50 | < 50 | – |
| FC1(F)CCC(Nc2nc(NC3CCC(F)(F)C3)nc(-n3ccc(C(F)(F)F)n3)n2)C1 (stereo not drawn) [Compound 146] | < 50 | < 50 | – |
| N#CC1(c2cc(Nc3nc(NC4CCC(F)(F)C4)nc(-c4nccc(C(F)(F)F)n4)n3)ccn2)CC1 (stereo not drawn) [Compound 261] | > 1000 | < 50 | – |
| N#CC1(c2cc(Nc3nc(NC4CC5(C4)CC(F)(F)C5)nc(-c4cccc(C(F)(F)F)n4)n3)ccn2)CC1 [Compound 229] | 100 to 1000 | < 50 | 100 to 1000 |
| FC1(F)CC(Nc2nc(NC3CC(F)(F)C3)nc(-n3ccc(C(F)(F)F)n3)n2)C1 [Compound 126] | 50 to 100 | < 50 | – |
| N#CC1(c2cc(Nc3nc(NC4CCC(F)(F)C4)nc(-c4cccc(C(F)(F)F)n4)n3)ccn2)CC1 (stereo not drawn) [Compound 151] | < 50 | < 50 | – |
| FC(F)c1cccc(-c2nc(NC3CC(F)(F)C3)nc(NC3CC(F)(F)C3)n2)n1 [Compound 145] | < 50 | < 50 | 100 to 1000 |
| FC1(F)CCC(Nc2nc(NC3CCC(F)(F)CC3)nc(-n3ccc(C(F)(F)F)n3)n2)CC1 [Compound 176] | 100 to 1000 | < 50 | 100 to 1000 |
| FC1(F)CCC(Nc2nc(NC3CCC(F)(F)CC3)nc(-c3cncc(Cl)n3)n2)CC1 [Compound 147] | 50 to 100 | < 50 | 100 to 1000 |
| CC(C#N)Nc1nc(Nc2ccnc(C(C)(F)F)c2)nc(-c2cccc(C(F)(F)F)n2)n1 (stereo not drawn) [Compound 253] | 100 to 1000 | < 50 | – |
| FC1(F)CCC(Nc2nc(NC3CCN(c4ccccn4)C3)nc(-c3cccc(C(F)(F)F)n3)n2)C1 (stereo not drawn) [Compound 222] | 100 to 1000 | 100 to 1000 | – |
| FC1(F)CCC(Nc2nc(NC3CCC(F)(F)CC3)nc(-c3csc(C(F)(F)F)n3)n2)CC1 [Compound 223] | 100 to 1000 | < 50 | – |
| FC1(F)CC(Nc2nc(NC3CC(F)(F)C3)nc(-c3csc(C(F)(F)F)n3)n2)C1 [Compound 170] | 100 to 1000 | < 50 | – |
| Fc1ccc([C@H]2C[C@@H](Nc3nc(N[C@H]4C[C@@H](c5ccc(F)cc5)C4)nc(-c4cccc(C(F)(F)F)n4)n3)C2)cc1 [Compound 272] | > 1000 | 100 to 1000 | 100 to 1000 |
| CC(F)(F)c1cccc(-c2nc(NC3CC(F)(F)C3)nc(NC3CC(F)(F)C3)n2)n1 [Compound 187] | 100 to 1000 | < 50 | – |

| Compound | IC50 [1] [nM] | IC50 (IDH2 R140Q) [nM] | IC50 (HT1080 cells) [nM] |
| --- | --- | --- | --- |
| CC(C)(C#N)Nc1nc(Nc2ccnc(C(C)(F)F)c2)nc(-c2cccc(C(F)(F)F)n2)n1 [Compound 247] | 100 to 1000 | < 50 | – |
| Clc1cccc(-c2nc(NC(C3CC3)C3CC3)nc(NC(C3CC3)C3CC3)n2)n1 [Compound 131] | 50 to 100 | < 50 | – |
| FC(F)c1cccc(-c2nc(NC3CCC(F)(F)CC3)nc(NC3CCC(F)(F)CC3)n2)n1 [Compound 224] | 100 to 1000 | < 50 | 100 to 1000 |
| C[C@@H](Nc1nc(N[C@H](C)C2CC2)nc(-n2ccc(C(F)(F)F)n2)n1)C1CC1 [Compound 121] | 50 to 100 | < 50 | < 50 |
| CC(C)(CC#N)Nc1nc(Nc2ccnc(C(C)(F)F)c2)nc(-c2cccc(C(F)(F)F)n2)n1 [Compound 231] | 100 to 1000 | < 50 | > 1000 |
| N#Cc1cc(Nc2nc(NC3CC(F)(F)C3)nc(-c3cccc(C(F)(F)F)n3)n2)ccn1 [Compound 213] | 50 to 100 | < 50 | – |
| FC1(F)CCC(Nc2nc(NC3Cc4ccc(Cl)cc4C3)nc(-c3cccc(C(F)(F)F)n3)n2)C1 (stereo not drawn) [Compound 182] | 100 to 1000 | < 50 | – |
| FC1(F)CC(Nc2nc(NC3CC(F)(F)C3)nc(-c3cccc(C(F)(F)F)n3)n2)C1 [Compound 149] | < 50 | < 50 | 50 to 100 |
| FC1(F)CCC(Nc2nc(Nc3ccnc(C(F)(F)F)c3)nc(-c3cccc(Cl)n3)n2)C1 (stereo not drawn) [Compound 115] | < 50 | < 50 | 100 to 1000 |
| CC(Nc1nc(Nc2ccnc(C3(C#N)CC3)c2)nc(-c2cccc(Cl)n2)n1)C(F)(F)F (stereo not drawn) [Compound 134] | < 50 | < 50 | < 50 |
| N#Cc1cc(Nc2nc(NC3CCC(F)(F)C3)nc(-c3cccc(C(F)(F)F)n3)n2)ccn1 (stereo not drawn) [Compound 181] | < 50 | < 50 | 100 to 1000 |
| FC1(F)CCC(Nc2nc(NC3CCN(c4ncccn4)C3)nc(-c3cccc(C(F)(F)F)n3)n2)C1 (stereo not drawn) [Compound 227] | 100 to 1000 | 100 to 1000 | – |
| Fc1cc(F)cc(Nc2nc(NC3CCC(F)(F)C3)nc(-c3cccc(C(F)(F)F)n3)n2)c1 (stereo not drawn) [Compound 123] | < 50 | < 50 | 100 to 1000 |
| FC1(F)CC(Nc2nc(NC3CC(F)(F)C3)nc(-c3nc(C(F)(F)F)cs3)n2)C1 [Compound 128] | < 50 | < 50 | < 50 |
| CC(F)(F)c1cccc(-c2nc(NC3CCC(F)(F)C3)nc(NC3CCC(F)(F)C3)n2)n1 (stereo not drawn) [Compound 105] | < 50 | < 50 | < 50 |
| FC1(F)CC(Nc2nc(NC3CC(F)(F)C3)nc(-c3nccc(C(F)(F)F)n3)n2)C1 [Compound 256] | > 1000 | < 50 | – |
| FC1(F)CCC(Nc2nc(NC3CCC(F)(F)C3)nc(-c3nccc(C(F)(F)F)n3)n2)C1 (stereo not drawn) [Compound 237] | 100 to 1000 | < 50 | 100 to 1000 |
| CC(CC#N)Nc1nc(N[C@H](C)C2CC2)nc(-c2cccc(C(F)(F)F)n2)n1 (stereo partly drawn) [Compound 214] | 100 to 1000 | < 50 | – |
| Fc1ccc([C@H]2C[C@@H](Nc3nc(NC4CCC(F)(F)C4)nc(-c4cccc(C(F)(F)F)n4)n3)C2)cc1 (stereo partly drawn) [Compound 199] | 100 to 1000 | < 50 | – |
| N#Cc1cc(F)cc(Nc2nc(NC3CCC(F)(F)CC3)nc(-c3cccc(C(F)(F)F)n3)n2)c1 [Compound 164] | 50 to 100 | < 50 | – |
| FC1(F)CCC(Nc2nc(NC3CCC(F)(F)C3)nc(-c3cccc(OC(F)(F)F)n3)n2)C1 (stereo not drawn) [Compound 252] | > 1000 | < 50 | – |
